Assay results from article PMC9927415, “Tyrosine Kinase Inhibitors Display Potent Activity against Cryptosporidium parvum” (Microbiology Spectrum, 2022).

What was measured:
Test in all cases: KINOMEscan competitive binding, whole panel
panel of 203 kinases [1] = target: T1, panel of 203 kinases (Homo sapiens, UniProt Q96D53); settings: 10 µM, n=1; kinase ADCK4; read-out: Percent inhibition ADCK4
T1 construct: purchased DiscoverX (KINOMEscan)
T1 sequence (Q96D53 1-544): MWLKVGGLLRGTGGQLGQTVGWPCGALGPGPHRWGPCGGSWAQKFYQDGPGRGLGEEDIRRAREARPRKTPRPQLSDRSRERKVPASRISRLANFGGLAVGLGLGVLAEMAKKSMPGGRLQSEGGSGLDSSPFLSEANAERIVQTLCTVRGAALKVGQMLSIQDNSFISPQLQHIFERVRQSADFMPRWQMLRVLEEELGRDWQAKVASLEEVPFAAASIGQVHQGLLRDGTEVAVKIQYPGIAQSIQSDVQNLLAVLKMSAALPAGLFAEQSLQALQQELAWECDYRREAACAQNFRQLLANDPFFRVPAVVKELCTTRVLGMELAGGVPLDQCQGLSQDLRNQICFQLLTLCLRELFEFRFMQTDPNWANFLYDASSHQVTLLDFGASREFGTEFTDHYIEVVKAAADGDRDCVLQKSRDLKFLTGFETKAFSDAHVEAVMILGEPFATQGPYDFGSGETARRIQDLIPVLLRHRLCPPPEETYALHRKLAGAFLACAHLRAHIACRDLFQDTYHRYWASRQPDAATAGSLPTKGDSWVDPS
How it was run: (§1)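 Percentage inhibition reflects loss of kinase binding to solid-phase ATP-site probe ligands in the presence of compound. Kinases carry a T7 bacteriophage fusion.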

panel of 203 kinases [2] = target: T2, panel of 203 kinases (Homo sapiens, UniProt P42684); settings: 10 µM, n=1; kinase ABL2; read-out: Percent inhibition ABL2
T2 construct: purchased DiscoverX (KINOMEscan)
T2 sequence (P42684 whole entry): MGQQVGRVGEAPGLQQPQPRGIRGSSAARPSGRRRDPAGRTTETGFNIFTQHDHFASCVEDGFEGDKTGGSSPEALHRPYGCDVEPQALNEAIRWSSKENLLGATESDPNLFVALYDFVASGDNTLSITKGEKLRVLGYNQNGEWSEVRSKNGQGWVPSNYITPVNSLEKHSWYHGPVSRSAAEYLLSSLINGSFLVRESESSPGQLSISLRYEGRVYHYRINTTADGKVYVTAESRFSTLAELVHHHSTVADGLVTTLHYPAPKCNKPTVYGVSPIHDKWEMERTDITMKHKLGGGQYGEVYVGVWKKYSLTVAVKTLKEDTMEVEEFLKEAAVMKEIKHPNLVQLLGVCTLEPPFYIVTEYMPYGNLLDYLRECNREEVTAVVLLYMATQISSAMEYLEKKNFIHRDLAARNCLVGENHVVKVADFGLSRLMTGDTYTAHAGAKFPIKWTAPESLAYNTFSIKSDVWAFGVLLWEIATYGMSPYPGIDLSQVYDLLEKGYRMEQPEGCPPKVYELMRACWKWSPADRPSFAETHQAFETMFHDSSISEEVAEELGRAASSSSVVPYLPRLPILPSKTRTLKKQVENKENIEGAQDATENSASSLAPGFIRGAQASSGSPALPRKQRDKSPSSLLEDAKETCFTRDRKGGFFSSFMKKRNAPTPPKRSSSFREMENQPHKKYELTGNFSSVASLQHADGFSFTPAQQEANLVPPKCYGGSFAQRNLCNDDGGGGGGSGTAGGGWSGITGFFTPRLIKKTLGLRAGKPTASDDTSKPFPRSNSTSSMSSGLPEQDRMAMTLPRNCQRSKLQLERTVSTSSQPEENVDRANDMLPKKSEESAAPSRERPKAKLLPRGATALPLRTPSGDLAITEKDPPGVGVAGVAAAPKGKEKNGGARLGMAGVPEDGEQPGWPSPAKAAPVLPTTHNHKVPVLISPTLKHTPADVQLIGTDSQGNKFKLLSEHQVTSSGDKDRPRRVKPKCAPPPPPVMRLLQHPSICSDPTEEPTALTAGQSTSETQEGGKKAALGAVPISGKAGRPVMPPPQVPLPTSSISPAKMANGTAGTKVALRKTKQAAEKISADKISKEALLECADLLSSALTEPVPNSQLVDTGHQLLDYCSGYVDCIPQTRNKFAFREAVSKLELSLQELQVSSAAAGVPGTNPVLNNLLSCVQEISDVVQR
How it was run: as §1

panel of 203 kinases [3] = target: T3, panel of 203 kinases (Homo sapiens, UniProt Q9Y6E0); settings: 10 µM, n=1; kinase MST3; read-out: Percent inhibition MST3
T3 construct: purchased DiscoverX (KINOMEscan)
T3 sequence (Q9Y6E0 whole entry): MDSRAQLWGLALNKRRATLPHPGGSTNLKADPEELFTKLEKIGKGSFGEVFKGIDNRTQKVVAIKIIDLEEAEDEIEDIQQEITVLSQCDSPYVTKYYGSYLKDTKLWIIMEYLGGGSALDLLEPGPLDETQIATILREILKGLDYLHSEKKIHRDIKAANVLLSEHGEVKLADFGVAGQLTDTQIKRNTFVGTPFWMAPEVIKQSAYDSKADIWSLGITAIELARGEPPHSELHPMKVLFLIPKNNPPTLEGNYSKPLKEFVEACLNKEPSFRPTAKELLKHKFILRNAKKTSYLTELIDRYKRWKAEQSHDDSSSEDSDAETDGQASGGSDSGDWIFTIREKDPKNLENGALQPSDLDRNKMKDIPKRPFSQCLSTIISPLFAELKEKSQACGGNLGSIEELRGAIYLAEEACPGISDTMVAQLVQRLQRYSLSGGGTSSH
How it was run: as §1

panel of 203 kinases [4] = target: T4, panel of 203 kinases (Homo sapiens, UniProt Q9UF33); settings: 10 µM, n=1; kinase EPHA6; read-out: Percent inhibition EPHA6
T4 construct: purchased DiscoverX (KINOMEscan)
T4 sequence (Q9UF33 23-1036): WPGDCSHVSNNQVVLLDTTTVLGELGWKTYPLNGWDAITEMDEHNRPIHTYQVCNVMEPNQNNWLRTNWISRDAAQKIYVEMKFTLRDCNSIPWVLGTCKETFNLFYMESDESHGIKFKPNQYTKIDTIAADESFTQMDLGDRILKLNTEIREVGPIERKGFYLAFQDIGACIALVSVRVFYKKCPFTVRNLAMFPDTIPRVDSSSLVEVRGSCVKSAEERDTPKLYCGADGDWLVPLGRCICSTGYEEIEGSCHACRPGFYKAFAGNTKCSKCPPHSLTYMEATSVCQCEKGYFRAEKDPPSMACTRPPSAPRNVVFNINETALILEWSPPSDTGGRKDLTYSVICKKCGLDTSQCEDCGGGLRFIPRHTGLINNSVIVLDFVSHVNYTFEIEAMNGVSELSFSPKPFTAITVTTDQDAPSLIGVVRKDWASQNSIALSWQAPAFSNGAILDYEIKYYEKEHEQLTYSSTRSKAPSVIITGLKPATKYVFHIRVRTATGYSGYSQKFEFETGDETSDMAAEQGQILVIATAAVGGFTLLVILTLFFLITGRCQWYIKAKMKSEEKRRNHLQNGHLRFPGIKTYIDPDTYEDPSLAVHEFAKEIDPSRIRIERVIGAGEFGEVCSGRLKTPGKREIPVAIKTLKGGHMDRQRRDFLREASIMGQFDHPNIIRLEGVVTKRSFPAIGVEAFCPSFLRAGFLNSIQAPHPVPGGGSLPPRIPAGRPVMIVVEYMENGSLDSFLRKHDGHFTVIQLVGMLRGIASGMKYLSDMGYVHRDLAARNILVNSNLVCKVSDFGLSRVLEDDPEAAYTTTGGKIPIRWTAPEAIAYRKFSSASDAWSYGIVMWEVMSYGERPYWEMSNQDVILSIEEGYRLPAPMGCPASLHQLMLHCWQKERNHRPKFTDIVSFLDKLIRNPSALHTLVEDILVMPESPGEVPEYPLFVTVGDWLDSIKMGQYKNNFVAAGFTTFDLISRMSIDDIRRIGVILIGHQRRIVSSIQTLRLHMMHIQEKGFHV
How it was run: as §1

panel of 203 kinases [5] = target: T5, panel of 203 kinases (Homo sapiens, UniProt P54760); settings: 10 µM, n=1; kinase EPHB4; read-out: Percent inhibition EPHB4
T5 construct: purchased DiscoverX (KINOMEscan)
T5 sequence (P54760 16-987): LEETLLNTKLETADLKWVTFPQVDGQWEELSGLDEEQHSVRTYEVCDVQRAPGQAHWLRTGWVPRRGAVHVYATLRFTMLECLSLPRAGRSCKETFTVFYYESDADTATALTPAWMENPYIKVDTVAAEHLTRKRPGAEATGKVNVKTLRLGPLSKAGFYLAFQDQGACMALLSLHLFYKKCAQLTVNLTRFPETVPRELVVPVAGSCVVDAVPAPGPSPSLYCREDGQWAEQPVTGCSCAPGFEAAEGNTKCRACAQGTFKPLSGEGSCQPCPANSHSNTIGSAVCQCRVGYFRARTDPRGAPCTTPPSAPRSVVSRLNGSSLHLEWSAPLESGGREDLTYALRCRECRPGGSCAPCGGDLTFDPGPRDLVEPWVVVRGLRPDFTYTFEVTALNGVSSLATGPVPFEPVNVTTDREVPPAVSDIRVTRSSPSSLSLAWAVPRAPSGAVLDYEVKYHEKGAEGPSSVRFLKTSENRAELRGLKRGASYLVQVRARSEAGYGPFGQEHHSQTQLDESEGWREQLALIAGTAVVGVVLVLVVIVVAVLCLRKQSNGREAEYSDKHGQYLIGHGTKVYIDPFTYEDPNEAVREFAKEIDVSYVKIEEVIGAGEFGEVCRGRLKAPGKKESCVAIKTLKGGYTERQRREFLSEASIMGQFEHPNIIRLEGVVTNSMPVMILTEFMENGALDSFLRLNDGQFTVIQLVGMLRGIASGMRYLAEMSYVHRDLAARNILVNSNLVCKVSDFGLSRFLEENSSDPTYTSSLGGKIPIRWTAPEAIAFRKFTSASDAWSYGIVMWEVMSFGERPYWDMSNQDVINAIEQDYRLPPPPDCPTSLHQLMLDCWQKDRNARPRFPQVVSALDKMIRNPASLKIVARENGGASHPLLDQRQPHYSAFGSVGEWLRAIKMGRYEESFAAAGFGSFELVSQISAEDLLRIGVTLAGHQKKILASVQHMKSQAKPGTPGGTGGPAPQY
How it was run: as §1

Row | Structure (SMILES) | inhibition at 10 µM (panel of 203 kinases [1]) | inhibition at 10 µM (panel of 203 kinases [2]) | inhibition at 10 µM (panel of 203 kinases [3]) | inhibition at 10 µM (panel of 203 kinases [4]) | inhibition at 10 µM (panel of 203 kinases [5])
1 | CN1CCN(c2ccc(Nc3nccc(-c4cnn5ncccc45)n3)cc2C#N)CC1 [Compound 1] | 98.6% | 95% | 99.4% | 0% | 0%
2 | COc1ccc(Nc2nccc(-c3cnn4ncccc34)n2)cc1 [Compound 2] | 94.5% | 92.5% | 72% | 65.1% | 0%
3 | Cc1ccc(O)cc1Nc1ccnc(Nc2cccc(C(N)=O)c2)n1 [Compound 3] | 100% | 100% | 0% | 100% | 100%
4 | Cc1ccc(O)cc1N(C)c1ccnc(Nc2cccc(S(N)(=O)=O)c2)n1 [Compound 4] | 100% | 100% | 0% | 100% | 100%
5 | Fc1cccc(COc2ccc(Nc3ncnc4c3CN(CCN3CCOCC3)CC4)cc2Cl)c1 [Compound 6] | 0% | 0% | 0% | 0% | 0%
6 | COc1cc(Nc2nccc(-c3sc(N)nc3-c3cccc(NC(=O)c4c(F)cccc4F)c3)n2)cc(OC)c1OC [Compound 7] | 100% | 100% | 93.8% | 100% | 91.9%
7 | C[C@@H](Oc1cc(-c2cnc3ccccn23)sc1C(N)=O)c1ccccc1Cl [Compound 8] | 0% | 0% | 0% | 0% | 0%
8 | c1ccc(COc2cccc(-c3ccnc4[nH]ccc34)c2)cc1 [Compound 9] | 0% | 0% | 0% | 0% | 0%
9 | Clc1ccc(Nc2ncc(-c3ccccc3)s2)cc1 [Compound 10] | 0% | 0% | 0% | 0% | 0%
10 | Nc1ncc2c(-c3ccncc3)c[nH]c2n1 [Compound 11] | 0% | 0% | 68.2% | 0% | 0%
